ChEMBL document CHEMBL2375301, “Design and synthesis of novel 4-benzothiazole amino quinazolines Dasatinib derivatives as potential anti-tumor agents” (Eur J Med Chem, 2013)

Assays:
HCT-116 = experiment: Cytotoxicity against human HCT116 cells after 72 hrs by WST-8 assay; type: functional, cell-based; details: HCT-116, 72 h
DLD-1 = experiment: Cytotoxicity against human DLD1 cells after 72 hrs by WST-8 assay; type: functional, cell-based; details: DLD-1, 72 h
U-937 = experiment: Cytotoxicity against human U937 cells after 72 hrs by WST-8 assay; type: functional, cell-based; details: U-937, 72 h
NCI-H661 = experiment: Cytotoxicity against human NCI-H661 cells after 72 hrs by WST-8 assay; type: functional, cell-based; details: NCI-H661, 72 h
[1] = target: Proto-oncogene tyrosine-protein kinase Src (Homo sapiens) (UniProt P12931); details: at 10 µM
Description: Inhibition of human recombinant SRC at 10 uM relative to control

A549 = experiment: Cytotoxicity against human A549 cells after 72 hrs by WST-8 assay; type: functional, cell-based; details: A549, 72 h
[2] = target: Epidermal growth factor receptor (Homo sapiens) (UniProt P00533); details: at 10 µM
Description: Inhibition of EGFR (unknown origin) at 10 uM relative to control

K562 = experiment: Cytotoxicity against human K562 cells after 72 hrs by WST-8 assay; type: functional, cell-based; details: K562, 72 h
[3] = target: Tyrosine-protein kinase ABL1 (Homo sapiens) (UniProt P00519); details: at 10 µM
Tyrosine-protein kinase ABL1 (Homo sapiens), sequence (P00519 whole entry): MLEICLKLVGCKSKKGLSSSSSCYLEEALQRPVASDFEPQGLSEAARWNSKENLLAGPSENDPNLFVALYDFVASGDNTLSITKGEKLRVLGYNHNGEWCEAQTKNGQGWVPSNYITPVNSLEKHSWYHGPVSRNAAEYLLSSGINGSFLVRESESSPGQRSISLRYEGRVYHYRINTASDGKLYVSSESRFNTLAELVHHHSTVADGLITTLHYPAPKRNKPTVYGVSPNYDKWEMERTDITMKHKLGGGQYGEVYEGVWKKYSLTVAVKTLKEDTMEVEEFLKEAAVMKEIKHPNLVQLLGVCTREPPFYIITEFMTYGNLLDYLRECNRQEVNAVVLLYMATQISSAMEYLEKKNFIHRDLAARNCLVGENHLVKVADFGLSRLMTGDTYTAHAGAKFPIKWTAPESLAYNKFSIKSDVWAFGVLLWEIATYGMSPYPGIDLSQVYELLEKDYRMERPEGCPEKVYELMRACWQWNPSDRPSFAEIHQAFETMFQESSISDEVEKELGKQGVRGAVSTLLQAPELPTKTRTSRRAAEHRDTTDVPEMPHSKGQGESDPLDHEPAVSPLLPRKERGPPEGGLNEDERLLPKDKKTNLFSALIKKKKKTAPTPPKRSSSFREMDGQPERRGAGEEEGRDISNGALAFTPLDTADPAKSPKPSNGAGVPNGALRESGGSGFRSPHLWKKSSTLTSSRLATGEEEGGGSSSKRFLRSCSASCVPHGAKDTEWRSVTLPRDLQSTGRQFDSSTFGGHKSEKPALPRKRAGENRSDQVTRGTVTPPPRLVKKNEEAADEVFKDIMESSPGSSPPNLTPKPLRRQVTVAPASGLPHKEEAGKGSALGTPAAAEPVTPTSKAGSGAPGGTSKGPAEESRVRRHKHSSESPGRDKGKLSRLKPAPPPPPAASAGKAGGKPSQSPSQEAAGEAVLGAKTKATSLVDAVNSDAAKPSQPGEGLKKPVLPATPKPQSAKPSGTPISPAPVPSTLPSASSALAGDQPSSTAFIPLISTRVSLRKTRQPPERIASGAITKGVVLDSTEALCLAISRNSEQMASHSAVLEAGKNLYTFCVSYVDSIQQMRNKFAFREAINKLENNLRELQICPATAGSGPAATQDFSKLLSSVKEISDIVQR
Description: Inhibition of human recombinant ABL at 10 uM relative to control

Epidermal growth factor receptor (Homo sapiens), sequence (P00533 whole entry): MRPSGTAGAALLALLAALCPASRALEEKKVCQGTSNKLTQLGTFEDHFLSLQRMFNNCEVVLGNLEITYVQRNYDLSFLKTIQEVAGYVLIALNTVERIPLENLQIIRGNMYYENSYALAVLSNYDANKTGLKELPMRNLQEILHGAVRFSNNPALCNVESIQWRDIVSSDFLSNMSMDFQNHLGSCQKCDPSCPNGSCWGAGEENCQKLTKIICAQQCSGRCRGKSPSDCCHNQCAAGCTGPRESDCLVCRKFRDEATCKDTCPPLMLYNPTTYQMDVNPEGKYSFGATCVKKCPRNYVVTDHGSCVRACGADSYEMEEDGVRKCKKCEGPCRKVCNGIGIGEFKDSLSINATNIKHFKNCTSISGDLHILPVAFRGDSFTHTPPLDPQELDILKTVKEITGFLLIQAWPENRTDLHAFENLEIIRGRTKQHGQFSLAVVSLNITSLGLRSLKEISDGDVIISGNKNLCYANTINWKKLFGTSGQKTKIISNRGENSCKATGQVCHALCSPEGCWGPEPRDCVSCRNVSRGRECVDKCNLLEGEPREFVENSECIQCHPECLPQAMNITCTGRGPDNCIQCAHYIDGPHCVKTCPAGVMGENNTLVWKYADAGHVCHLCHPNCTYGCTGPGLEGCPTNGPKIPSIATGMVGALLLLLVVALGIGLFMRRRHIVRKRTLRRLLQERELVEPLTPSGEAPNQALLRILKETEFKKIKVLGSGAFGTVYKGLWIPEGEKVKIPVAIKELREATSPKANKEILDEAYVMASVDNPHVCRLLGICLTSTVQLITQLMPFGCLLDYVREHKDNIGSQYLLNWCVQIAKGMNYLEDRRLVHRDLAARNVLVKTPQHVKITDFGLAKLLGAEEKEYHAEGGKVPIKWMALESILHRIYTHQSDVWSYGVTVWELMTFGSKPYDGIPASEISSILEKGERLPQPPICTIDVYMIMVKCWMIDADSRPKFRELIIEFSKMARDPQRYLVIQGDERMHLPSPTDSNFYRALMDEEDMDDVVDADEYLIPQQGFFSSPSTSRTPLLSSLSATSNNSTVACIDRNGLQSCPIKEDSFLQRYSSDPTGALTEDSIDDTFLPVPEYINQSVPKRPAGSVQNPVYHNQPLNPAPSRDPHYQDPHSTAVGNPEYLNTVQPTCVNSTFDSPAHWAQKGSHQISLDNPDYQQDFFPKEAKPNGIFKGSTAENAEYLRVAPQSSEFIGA
Proto-oncogene tyrosine-protein kinase Src (Homo sapiens), sequence (P12931 2-536 limits assumed): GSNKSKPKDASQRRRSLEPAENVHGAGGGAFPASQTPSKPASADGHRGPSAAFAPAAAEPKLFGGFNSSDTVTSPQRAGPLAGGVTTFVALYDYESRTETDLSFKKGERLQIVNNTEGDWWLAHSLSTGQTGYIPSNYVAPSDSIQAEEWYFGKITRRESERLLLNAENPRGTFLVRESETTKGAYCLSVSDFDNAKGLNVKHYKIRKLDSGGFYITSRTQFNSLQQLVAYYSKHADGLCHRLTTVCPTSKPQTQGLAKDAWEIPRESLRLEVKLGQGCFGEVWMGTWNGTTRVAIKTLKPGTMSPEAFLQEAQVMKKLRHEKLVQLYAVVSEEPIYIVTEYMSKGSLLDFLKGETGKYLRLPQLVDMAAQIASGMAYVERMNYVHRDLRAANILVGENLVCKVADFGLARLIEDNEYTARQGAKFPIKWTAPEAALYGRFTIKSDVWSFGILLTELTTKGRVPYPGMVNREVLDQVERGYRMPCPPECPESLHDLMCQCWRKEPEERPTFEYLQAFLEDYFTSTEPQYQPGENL

Structure (SMILES) | IC50 (HCT-116) | IC50 (DLD-1) | IC50 (U-937) | IC50 (NCI-H661) | inhibition [1] | IC50 (A549) | inhibition [2] | IC50 (K562) | inhibition [3]
COc1cc2c(Nc3nc4ccc(C(=O)Nc5c(C)cccc5C)cc4s3)ncnc2cc1OCCCN1CCCCC1 | > 100 µM | > 100 µM | 14.7 µM | > 100 µM | 43.4% | > 100 µM | 17.3% | 13.7 µM | 39%
COc1cc2c(Nc3nc4ccc(C(=O)Nc5c(C)cccc5Cl)cc4s3)ncnc2cc1OCCCN1CCC(C)CC1 | 9.1 µM | 11.3 µM | 9.2 µM | 7.9 µM | 67.4% | 9.7 µM | 23.7% | 8.3 µM | 56.2%
COc1cc2c(Nc3nc4ccc(C(=O)Nc5c(C)cccc5Cl)cc4s3)ncnc2cc1OCCCN1CCCC1 | 63.8 µM | 60.7 µM | 19.9 µM | 45.5 µM | 55.7% | 38.6 µM | 15.6% | 13.3 µM | 78.7%
COc1cc2c(Nc3nc4ccc(C(=O)Nc5c(C)cccc5C)cc4s3)ncnc2cc1OCCCN1CCCCC1C (configuration not stated) | > 100 µM | > 100 µM | 10.8 µM | 84.4 µM | 49% | 75.7 µM | 25.4% | 12.3 µM | 49.2%
Cc1nc(Nc2ncc(C(=O)Nc3c(C)cccc3Cl)s2)cc(N2CCN(CCO)CC2)n1 [DASATINIB] | 5.3 µM | 4.6 µM | 12.2 µM | 7.8 µM |  | 8.2 µM |  | 11.9 µM | 
COc1cc2c(Nc3nc4ccc(C(=O)Nc5c(C)cccc5Cl)cc4s3)ncnc2cc1OCCCN1CCCCC1C (configuration not stated) | 7.2 µM | 6.7 µM | 7 µM | 5.3 µM | 78.9% | 6.7 µM | 53.6% | 6.8 µM | 71.1%
CCN(CC)CCCOc1cc2ncnc(Nc3nc4ccc(C(=O)Nc5c(C)cc(C)cc5C)cc4s3)c2cc1OC | 7.5 µM | 6.8 µM | 4.3 µM | 7.3 µM | 65.3% | 5.7 µM | 25.4% | 6.8 µM | 76.3%
COc1cc2c(Nc3nc4ccc(C(=O)Nc5c(C)cccc5C)cc4s3)ncnc2cc1OCCCN1CCCC1 | > 100 µM | > 100 µM | 18.9 µM | > 100 µM | 39.9% | 83.8 µM | 21.2% | 15.7 µM | 34.3%
COc1cc2c(Nc3nc4ccc(C(=O)Nc5c(C)cccc5Cl)cc4s3)ncnc2cc1OCCCN1CCCCC1 | 23.4 µM | 14.7 µM | 8.6 µM | 13.8 µM | 83.3% | 12.8 µM | 28.7% | 12.5 µM | 49.9%
COc1cc2c(Nc3nc4ccc(C(=O)Nc5c(C)cc(C)cc5C)cc4s3)ncnc2cc1OCCCN1CCOCC1 | 5.6 µM | 5.8 µM | 24.2 µM | 18.4 µM | 80.6% | 16.3 µM | 45.1% | 20 µM | 76.5%
CCN(CC)CCCOc1cc2ncnc(Nc3nc4ccc(C(=O)Nc5c(C)cccc5C)cc4s3)c2cc1OC | > 100 µM | > 100 µM | 23.7 µM | 66.5 µM | 53.6% | > 100 µM | 10.5% | 28.4 µM | 50%
COc1cc2c(Nc3nc4ccc(C(=O)Nc5c(C)cccc5C)cc4s3)ncnc2cc1OCCCN1CCOCC1 | > 100 µM | > 100 µM | 19.2 µM | > 100 µM | 28.7% | > 100 µM | 9.9% | > 100 µM | 41.7%
COc1cc2c(Nc3nc4ccc(C(=O)Nc5c(C)cccc5Cl)cc4s3)ncnc2cc1OCCCN1CCOCC1 | > 100 µM | > 100 µM | 22.6 µM | > 100 µM | 34.3% | 75.2 µM | 10.4% | 16.4 µM | 43.7%
CCN(CC)CCCOc1cc2ncnc(Nc3nc4ccc(C(=O)Nc5c(C)cccc5Cl)cc4s3)c2cc1OC | 13.2 µM | 11.7 µM | 7.3 µM | 11.2 µM | 68.2% | 10.6 µM | 46.8% | 9.6 µM | 67.1%
COc1cc2c(Nc3nc4ccc(C(=O)Nc5c(C)cc(C)cc5C)cc4s3)ncnc2cc1OCCCN1CCCCC1C (configuration not stated) | 5.6 µM | 5.7 µM | 3.6 µM | 8.8 µM | 89.2% | 5.8 µM | 65.8% | 3.5 µM | 
COc1cc2c(Nc3nc4ccc(C(=O)Nc5c(C)cccc5C)cc4s3)ncnc2cc1OCCCN1CCC(C)CC1 | > 100 µM | > 100 µM | 11.2 µM | 72.3 µM | 56.5% | 89.7 µM | 13.3% | 15.8 µM | 54.2%
COc1cc2c(Nc3nc4ccc(C(=O)Nc5c(C)cc(C)cc5C)cc4s3)ncnc2cc1OCCCN1CCCCC1 | 16.9 µM | 24.5 µM | 12.2 µM | 10 µM | 69.7% | 10.3 µM | 37.9% | 9.3 µM | 81.6%
COc1cc2c(Nc3nc4ccc(C(=O)Nc5c(C)cc(C)cc5C)cc4s3)ncnc2cc1OCCCN1CCCC1 | 5.8 µM | 5.9 µM | 4.6 µM | 9.6 µM | 91.8% | 8.9 µM | 48.7% | 4.3 µM | 82.3%
COc1cc2c(Nc3nc4ccc(C(=O)Nc5c(C)cc(C)cc5C)cc4s3)ncnc2cc1OCCCN1CCC(C)CC1 | 6.9 µM | 7 µM | 5.6 µM | 7.7 µM | 78.6% | 5.4 µM | 36.3% | 5.9 µM | 68.2%
